Legend:
sLFA-1/ICAM-1 = sLFA-1/ICAM-1 (Homo sapiens, UniProt P05107+P20701, DEL701-769); experiment: sLFA-1/ICAM-1 ELISA; conditions: sLFA-1 coated plates, 5dICAM-Fc binding, read-out: LFA/ICAM (IC50)
Procedure: (§1) sLFA-1/ICAM-1 ELISA and Mac-1/ICAM-1 ELISA
(§2) Plates were coated with either 50 μl/well of 2.0 ug/ml solution of sLFA-1 or Mac-1 receptor in divalent cation buffer (1 mM MnCI2, 0.14M NaCl, 20 mM HEPES pH 7.2) at 4° C. overnight. Two hundred fifty μl of blocking buffer (1% BSA in divalent cation buffer) was added to each well 1 hour at 37° C. Plates were washed 3 times with wash buffer (TBS/0.05% Tween-20/1 mM MnCl2). The compound to be tested was solubilized in DMSO. A series of 1:3 dilutions were performed to achieve a concentration range of 0.45 nM-3 uM. Fifty μl of binding buffer (0.5% BSA in divalent cation buffer)/1% DMSO and 50 μl of the solutions to be tested were added to the appropriate wells and incubated for 1 hour. Fifty μl of 5dICAM-Fc (27 ng/ml) was added to the appropriate wells and 50 μl binding buffer was added to non-specific binding wells and incubated for 2 hours and washed. One hundred μl of 1:4000 HRP-goat anti-huIgG was added to each well and incubated for 1 hour and washed. One hundred μl of 1:1 TMB solution was added to each well and developed for 20 min at room temperature. Color development was stopped by adding 100 μl H3PO4 to each well. Absorbance was measured at 450 nm.

Mac-1/ICAM-1 = Mac-1/ICAM-1 (Homo sapiens, UniProt P05107+P11215); experiment: Mac-1/ICAM-1 ELISA; conditions: Mac-1 receptor coated plates, 5dICAM-Fc binding
Mac-1/ICAM-1, sequence (P05107 23-769, other chains not shown): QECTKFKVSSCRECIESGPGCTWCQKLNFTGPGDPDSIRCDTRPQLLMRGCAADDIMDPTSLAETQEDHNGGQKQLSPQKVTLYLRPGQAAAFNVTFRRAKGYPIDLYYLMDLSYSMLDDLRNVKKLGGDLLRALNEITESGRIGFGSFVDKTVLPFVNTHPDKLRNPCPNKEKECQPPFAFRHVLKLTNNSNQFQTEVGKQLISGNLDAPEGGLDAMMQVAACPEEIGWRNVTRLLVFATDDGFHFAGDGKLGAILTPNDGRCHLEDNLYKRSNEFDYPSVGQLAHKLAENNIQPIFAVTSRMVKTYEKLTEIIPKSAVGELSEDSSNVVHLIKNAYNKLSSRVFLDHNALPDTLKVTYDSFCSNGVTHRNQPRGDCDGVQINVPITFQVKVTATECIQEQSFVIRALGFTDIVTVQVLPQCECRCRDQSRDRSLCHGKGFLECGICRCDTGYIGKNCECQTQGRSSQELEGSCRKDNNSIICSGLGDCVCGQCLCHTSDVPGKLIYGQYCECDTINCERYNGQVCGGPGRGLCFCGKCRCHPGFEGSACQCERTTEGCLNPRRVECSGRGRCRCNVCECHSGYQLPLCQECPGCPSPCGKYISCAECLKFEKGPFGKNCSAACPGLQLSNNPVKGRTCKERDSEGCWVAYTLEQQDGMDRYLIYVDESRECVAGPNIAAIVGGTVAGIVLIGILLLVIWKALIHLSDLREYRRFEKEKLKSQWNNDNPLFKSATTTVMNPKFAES
Procedure: as §1, §2

sLFA-1/ICAM-1, sequence (P20701 26-1090 limits assumed, stated change not applied): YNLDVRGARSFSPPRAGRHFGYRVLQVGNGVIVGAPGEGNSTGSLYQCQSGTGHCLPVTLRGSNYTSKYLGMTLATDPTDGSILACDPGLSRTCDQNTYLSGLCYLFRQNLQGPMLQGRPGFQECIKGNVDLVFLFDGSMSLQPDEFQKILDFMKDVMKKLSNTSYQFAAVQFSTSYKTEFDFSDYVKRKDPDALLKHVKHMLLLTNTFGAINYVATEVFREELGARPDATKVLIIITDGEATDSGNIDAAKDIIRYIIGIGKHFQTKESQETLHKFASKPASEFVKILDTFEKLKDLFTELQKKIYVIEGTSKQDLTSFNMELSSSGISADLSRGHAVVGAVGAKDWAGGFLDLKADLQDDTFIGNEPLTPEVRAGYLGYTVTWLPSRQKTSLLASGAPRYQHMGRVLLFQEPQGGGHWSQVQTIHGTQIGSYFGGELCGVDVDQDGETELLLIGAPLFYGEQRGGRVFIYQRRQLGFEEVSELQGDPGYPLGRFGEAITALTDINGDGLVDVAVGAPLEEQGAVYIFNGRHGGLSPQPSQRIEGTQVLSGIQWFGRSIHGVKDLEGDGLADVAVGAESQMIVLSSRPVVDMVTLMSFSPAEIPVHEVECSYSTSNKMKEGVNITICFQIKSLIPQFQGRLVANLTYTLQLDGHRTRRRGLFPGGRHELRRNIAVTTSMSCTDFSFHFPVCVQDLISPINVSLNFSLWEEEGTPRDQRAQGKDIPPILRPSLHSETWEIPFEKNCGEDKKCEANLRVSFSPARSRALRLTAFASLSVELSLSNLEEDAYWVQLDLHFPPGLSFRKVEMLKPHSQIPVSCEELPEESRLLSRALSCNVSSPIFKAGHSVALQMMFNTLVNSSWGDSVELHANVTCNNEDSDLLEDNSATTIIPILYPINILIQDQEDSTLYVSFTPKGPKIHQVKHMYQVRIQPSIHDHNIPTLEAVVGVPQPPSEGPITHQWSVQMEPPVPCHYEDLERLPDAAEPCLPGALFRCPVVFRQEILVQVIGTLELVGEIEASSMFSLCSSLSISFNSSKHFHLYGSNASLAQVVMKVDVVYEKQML
sLFA-1/ICAM-1, sequence (P05107 23-700 limits assumed, stated change not applied): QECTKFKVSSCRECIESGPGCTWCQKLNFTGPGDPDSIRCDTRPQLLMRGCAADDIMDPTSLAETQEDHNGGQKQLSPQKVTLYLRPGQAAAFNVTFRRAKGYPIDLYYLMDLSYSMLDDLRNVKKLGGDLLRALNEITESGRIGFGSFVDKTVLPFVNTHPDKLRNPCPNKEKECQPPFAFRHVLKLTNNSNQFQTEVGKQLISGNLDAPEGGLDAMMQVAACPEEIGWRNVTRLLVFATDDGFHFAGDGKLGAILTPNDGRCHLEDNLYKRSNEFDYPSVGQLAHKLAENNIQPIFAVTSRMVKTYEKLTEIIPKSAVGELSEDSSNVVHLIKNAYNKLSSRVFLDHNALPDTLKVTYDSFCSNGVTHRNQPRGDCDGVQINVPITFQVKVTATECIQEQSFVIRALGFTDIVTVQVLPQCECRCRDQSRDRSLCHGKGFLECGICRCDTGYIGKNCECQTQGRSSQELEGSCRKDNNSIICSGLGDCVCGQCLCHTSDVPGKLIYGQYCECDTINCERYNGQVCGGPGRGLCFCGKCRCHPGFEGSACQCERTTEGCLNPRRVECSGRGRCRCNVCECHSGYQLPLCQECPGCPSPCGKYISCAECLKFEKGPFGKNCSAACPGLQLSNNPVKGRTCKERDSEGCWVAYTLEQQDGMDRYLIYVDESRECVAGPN

Row | Structure (SMILES) | IC50 (sLFA-1/ICAM-1) [nM] | IC50 (Mac-1/ICAM-1) [nM]
1 | Cc1cc(C(=O)NCc2cccc(O)c2)sc1C(=O)N[C@@H](CNC(=O)c1cccc2[nH]ncc12)C(=O)O [Example 44, (S)-2-{[5-(3-hydroxy-benzylcarbamoyl)-3-methyl-thiophene-2-carbonyl]-amino}-3-[(1H-indazole-4-carbonyl)-amino]-propionic acid] | 17 | –
2 | Cc1nc(NC(=O)Cc2cccc(O)c2)sc1C(=O)N[C@@H](CNC(=O)c1cccc(O)c1)C(=O)O [Example 5, (S)-3-(3-Hydroxy-benzoylamino)-2-({2-[2-(3-hydroxy-phenyl)-acetylamino]-4-methyl-thiazole-5-carbonyl}-amino)-propionic acid] | 2 | 300
3 | Cc1cc(C(=O)NCCc2cccc(O)c2)sc1C(=O)N[C@@H](CNC(=O)c1cccs1)C(=O)O [Example 48, (S)-2-({5-[2-(3-hydroxy-phenyl)ethyl-carbamoyl]-3-methyl-thiophen-2-carbonyl}-amino)-3-[(thiophene-2-carbonyl)-amino]-propionic acid] | 85 | –
4 | Cc1cc(C(=O)NCc2cccc(O)c2)sc1C(=O)N[C@@H](CNC(=O)c1cc(O)cc(O)c1)C(=O)O [Example 38, (S)-3-(3,5-dihydroxy-benzoylamino)-2-{[5-(3-hydroxy-benzylcarbamoyl)-3-methyl-thiophen-2-carbonyl]-amino}-propionic acid] | 2 | 7
5 | O=C(Cc1cccc(O)c1)Nc1ncc(C(=O)N[C@@H](CNC(=O)c2cccs2)C(=O)O)s1 [Example 3, (S)-2-({2-[2-(3-Hydroxy-phenyl)-acetylamino]-thiazole-5-carbonyl}-amino)-3-[(thiophene-2-carbonyl)-amino]-propionic acid] | 85 | > 3000
6 | Cc1cc(C(=O)NCc2cccc3[nH]ncc23)sc1C(=O)N[C@@H](CNC(=O)c1cccs1)C(=O)O [Example 36, (S)-2-({5-[(1H-indazol-4-ylmethyl)-carbamoyl]-3-methyl-thiophen-2-carbonyl}-amino)-3-[(thiophene-2-carbonyl)-amino]-propionic acid] | 24 | 48
7 | Cc1cc(C(=O)NCc2cccc(O)c2)sc1C(=O)N[C@@H](CNC(=O)c1cccs1)C(=O)O [Example 32, (S)-2-{[5-(3-hydroxy-benzylcarbamoyl)-3-methyl-thiophen-2-carbonyl]-amino}-3-[(thiophene-2-carbonyl)-amino]-propionic acid] | 19 | 94
8 | O=C(NC[C@H](NC(=O)c1sc(C(=O)NCc2cccc3[nH]ncc23)cc1Cl)C(=O)O)c1cccs1 [Example 56, (S)-2-({3-Chloro-5-[(1H-indazol-4-ylmethyl)-carbamoyl]-thiophene-2-carbonyl}-amino)-3-[(thiophene-2-carbonyl)-amino]-propionic acid] | 29 | 20
9 | Cc1nc(NC(=O)Cc2cccc(O)c2)sc1C(=O)N[C@@H](CNC(=O)c1ccccc1)C(=O)O [Example 4, (S)-3-Benzoylamino-2-([2-[2-(3-hydroxy-phenyl)-acetylamino]-4-methyl-thiazole-5-carbonyl]-amino)-propionic acid] | 6 | –
10 | Cc1nc(NC(=O)Cc2cccc3[nH]ncc23)sc1C(=O)N[C@@H](CNC(=O)c1cccs1)C(=O)O [Example 14, (S)-2-{[2-(2-1H-Indazol-4-yl-acetylamino)-4-methyl-thiazole-5-carbonyl]-amino}-3-[(thiophene-2-carbonyl)-amino]-propionic acid] | 8 | 89
11 | O=C(Cc1cccc2[nH]ncc12)Nc1nc(C(F)(F)F)c(C(=O)N[C@@H](CNC(=O)c2cccs2)C(=O)O)s1 [Example 16, (S)-2-{[2-(2-1H-Indazol-4-yl-acetylamino)-4-trifluoromethyl-thiazole-5-carbonyl]-amino}-3-[(thiophene-2-carbonyl)-amino]-propionic acid] | 17 | –
12 | Cc1nc(NCCCc2cccc3[nH]ncc23)sc1C(=O)N[C@@H](CNC(=O)c1cccs1)C(=O)O [Example 17, (S)-2-([2-[3-(1H-Indazol-4-yl)-propylamino]-4-methyl-thiazole-5-carbonyl]-amino)-3-[(thiophene-2-carbonyl)-amino]-propionic acid] | 223 | 294
13 | Cc1cc(C(=O)NC(C)c2cccc(O)c2)sc1C(=O)N[C@@H](CNC(=O)c1cccs1)C(=O)O (stereo partly drawn) [Example 37, (S)-2-({5-[1-(3-hydroxy-phenyl)-ethylcarbamoyl]-3-methyl-thiophen-2-carbonyl}-amino)-3-[(thiophene-2-carbonyl)-amino]-propionic acid] | 27 | –
14 | O=C(Cc1cccc(O)c1)Nc1nc(Cl)c(C(=O)N[C@@H](CNC(=O)c2cccs2)C(=O)O)s1 [Example 8, (S)-2-({4-Chloro-2-[2-(3-hydroxy-phenyl)-acetylamino]-thiazole-5-carbonyl}-amino)-3-[(thiophene-2-carbonyl)-amino]-propionic acid] | 7 | 32
15 | O=C(NC[C@H](NC(=O)c1sc(C(=O)NCc2cccc(O)c2)cc1Br)C(=O)O)c1cccs1 [Example 63, (S)-2-{[3-Bromo-5-(3-hydroxy-benzylcarbamoyl)-thiophene-2-carbonyl]-amino}-3-[(thiophene-2-carbonyl)-amino]-propionic acid] | 7 | 25
16 | O=C1Cc2c(CNC(=O)c3cc(C(F)(F)F)c(C(=O)N[C@@H](CNC(=O)c4cccs4)C(=O)O)s3)cccc2N1 [Example 51, (S)-2-({5-[(2-oxo-2,3-dihydro-1H-indol-4-ylmethyl)-carbamoyl]-3-trifluoromethyl-thiophene-2-carbonyl}-amino)-3-[(thiophene-2-carbonyl)-amino]-propionic acid] | 164 | > 3000
17 | Cc1cc(C(=O)NCc2cccc(O)c2)sc1C(=O)N[C@@H](CNC(=O)c1cccc2[nH]cnc12)C(=O)O [Example 46, (S)-3-[(1H-benzoimidazole-4-carbonyl)-amino]-2-{[5-(3-hydroxy-benzylcarbamoyl)-3-methyl-thiophene-2-carbonyl]-amino}-propionic acid] | 51 | –
18 | Cc1cc(C(=O)NCc2cccc(O)c2)sc1C(=O)N[C@@H](CNC(=O)c1cccc(C(=O)O)c1)C(=O)O [Example 47, (S)-3-[(benzoic acid-3-carbonyl)-amino]-2-{[5-(3-hydroxy-benzylcarbamoyl)-3-methyl-thiophene-2-carbonyl]-amino}-propionic acid] | 289 | –
19 | N#Cc1cc(C(=O)NCc2cccc(O)c2)sc1C(=O)N[C@@H](CNC(=O)c1cccs1)C(=O)O [Example 65, (S)-2-{[3-Cyano-5-(3-hydroxy-benzylcarbamoyl)-thiophene-2-carbonyl]-amino}-3-[(thiophene-2-carbonyl)-amino]-propionic acid] | 3 | –
20 | Cc1cc(C(=O)NCc2cccc(O)c2)sc1C(=O)N[C@@H](CNC(=O)c1cnc(O)cn1)C(=O)O [Example 45, (S)-2-{[5-(3-hydroxy-benzylcarbamoyl)-3-methyl-thiophene-2-carbonyl]-amino}-3-[(5-hydroxy-pyrazine-2-carbonyl)-amino]-propionic acid] | 763 | –
21 | Cc1nc(NC(=O)Cc2cccc(O)c2)sc1C(=O)N[C@@H](CNC(=O)c1cc(O)cc(O)c1)C(=O)O [Example 6, (S)-3-(3,5-Dihydroxy-benzoylamino)-2-({2-[2-(3-hydroxy-phenyl)-acetylamino]-4-methyl-thiazole-5-carbonyl}-amino)-propionic acid] | 3 | –
22 | Cc1nc(NC(=O)CCc2cccc(O)c2)sc1C(=O)N[C@@H](CNC(=O)c1cccs1)C(=O)O [Example 11, (S)-2-([2-[3-(3-Hydroxy-phenyl)-propionylamino]-4-methyl-thiazole-5-carbonyl]-amino)-3-[(thiophene-2-carbonyl)-amino]-propionic acid] | 90 | –
23 | O=C(NC[C@H](NC(=O)c1sc(C(=O)NCc2cccc(O)c2)cc1-c1ccccc1)C(=O)O)c1cccs1 [Example 53, (S)-2-{[5-(3-Hydroxy-benzylcarbamoyl)-3-phenyl-thiophene-2-carbonyl]-amino}-3-[(thiophene-2-carbonyl)-amino]-propionic acid] | 1550 | –
24 | N#Cc1cc(C(=O)NCc2cccc3[nH]ncc23)sc1C(=O)N[C@@H](CNC(=O)c1cc(O)cc(O)c1)C(=O)O [Example 66, (S)-2-({3-Cyano-5-[(1H-indazol-4-ylmethyl)-carbamoyl]-thiophene-2-carbonyl}-amino)-3-(3,5-dihydroxy-benzoylamino)-propionic acid] | 41 | –
25 | Cc1nc(NC(=O)Cc2cccc(O)c2)sc1C(=O)N[C@@H](CNC(=O)c1cc(F)cc(F)c1)C(=O)O [Example 1, (S)-3-(3,5-Difluoro-benzoylamino)-2-({2-[2-(3-hydroxy-phenyl)-acetylamino]-4-methyl-thiazole-5-carbonyl}-amino)-propionic acid] | 17 | –
26 | COc1cc(C(=O)NC[C@H](NC(=O)c2sc(C(=O)NCc3cccc(O)c3)cc2C)C(=O)O)nc(OC)n1 [Example 43, (S)-3-[(2,6-dimethoxy-pyrimidine-4-carbonyl)-amino]-2-{[5-(3-hydroxy-benzylcarbamoyl)-3-methyl-thiophene-2-carbonyl]-amino}-propionic acid] | > 3000 | –

Reference: patent US8404859B2, “Thiazole and thiophene compounds” (Hoffmann-La Roche Inc., priority 2011, dated 2013)
